According to patent publication US20050019426A1, “Use of an aqueous or hydroalcoholic extract from bauhinia for the preparation of a composition” (priority 2003, published 2005):
“And” between values parts separate entries of the source, which are not always exact repeats. Identical values can stand only once.

Tested on: non-enzymatic incorporation of glucose into proteins (glycation) in human dermal fibroblasts (NDHF Pool PF2)
Experiment: Non-enzymatic incorporation of glucose into proteins (glycation) in fibroblasts (Example 5)
Format: cell-based
Conditions: 1 mg/ml, 15 days
Experimental: Material: • human dermal fibroblasts (NDHF Pool PF2) • culture medium: DMEM, 2 mM glutamine, 50 Ul/ml of penicillin, 50 μg/ml of streptomycin, 10% foetal calf serum (Life Technologies) • dry extract of Bauhinia forficata according to Example 4 (aqueous extraction), dissolved in sterile PBS • final concentrations tested: 0.3 mg/ml, 0.1 mg/ml, 0.03 mg/ml • reference: aminoguanidine 1 mg/ml
Human dermal fibroblasts are cultivated to confluence in cell culture medium (see above) in 25 cm^2 plates at 37° C. and 5% CO2. Collagen synthesis is stimulated by cultivation of the cells in the presence of vitamin C (final concentration: 20 μg/ml) for 96 hours. The cells are washed with PBS and lysed by serial freezing/thawing. The cells are treated with aqueous extract of Bauhinia forficata or aminoguanidine (and control: PBS) and labelled with 20 μCi/ml D-[5-^3H]-glucose (19 Ci/mmol), 703 Gbq/mmol) in the presence of 0.1 mg/ml of glucose. The treatment and labelling are carried out without interruption for 15 days at 37° C. and 5% CO2. At the end of the incubation, proteins of the extracellular matrix (principally collagen) are extracted by buffer (TRIS 50 mM, 4M guanidine, 5 mM EDTA, pH 8.0, 30 min). The total protein is precipitated by 20% (v/v) trichloroacetic acid, 0.66 mg/ml of albumin. The precipitates are recovered by filtration from a Skatron collector and washed copiously, firstly in 3% trichloroacetic acid, then with 70% ethanol. The glucose covalently bonded to the fibres of the extracellular matrix is finally measured by scintillation.

SMILES: N=C(N)NN [Aminoguanidine, aminoguanidine]
- reduction of glucose incorporation: 85%
- Mean cpm (n=3): 3701 cpm
- cpm (glucose incorporated into proteins) (single replicates): 2859 cpm and 3434 cpm and 4809 cpm
- activity at 1000 µg/mL (Homo sapiens, Fibroblast, 360 h, read-out: % of control (glucose incorporation)): 15%
